Assay results as given in publication PMC6152131, “Pharmacokinetic Study of Biotransformation Products from an Anxiolytic Fraction of Tilia americana” (Molecules : A Journal of Synthetic Chemistry and Natural …, 2017).
Like-named read-outs stand apart in the source and are kept apart here.

Tests used:
[1] = Stability of flavonoids and biotransformation products in mouse plasma under different handling conditions; assay type: in vitro ADME, mice
Experimental: (§1) Plasma dried pulverized samples were extracted with methanol (HPLC grade, Merck). The extracts were filtered with Teflon membrane dimensions 0.45 μm by 13 mm (Millex®-LCR); 20 μL of each filtered sample was injected into the HPLC equipment. The measurements were performed in a (Waters corporation, Milford, CT, USA) 2695 HPLC with a diode array detector (Waters 2996) and processed with the Empower Pro 1.0 software. A Chromolith Performance® RP-18e 100 × 4.6 mm (Merck KGaA, Darmstadt, Germany) was used. The mobile phase consisted of a mixture of acetonitrile and water with the proportion 55:45 and a flow rate of 1 mL/min. The concentrations of the flavonoids and the biotransformation products were obtained by comparison with a pre-built calibration curve at λ = 220 nm.
[…] The investigation enclosed here expected manipulation conditions during all the sample storage and process periods, which included the stability data from the freeze/thaw, bench-top, autosampler, and long–term stability tests.
For all stability studies, fresh QC samples were evaluated by using a freshly prepared standard curve for the measurements. The concentrations obtained from all the stability studies were compared with the fresh QC samples, and the percentage concentration deviation was calculated. The analytes were considered stable in the mouse plasma when the concentration difference between the freshly prepared samples and the stability samples was less than 15%.

[2] = Plasma concentration after a single oral dose of the anxiolytic fraction (HPLC); assay type: in vivo, ICR mice; conditions: oral 200 mg/kg anxiolytic fraction, immediately after administration and over 24 h
Experimental: Eleven groups of ten animals each were randomly formed. All animals were orally administered with 200 mg/kg of the active fraction. Animals were anaesthetized with ether, and blood samples were obtained from the retroorbital sinus with a heparinized capillary, each group was examined at different times (0, 5, 10, 15, 30, 60, 120, 240, 480, 720, and 1440 min) after the active fraction was administered. […] Then the plasma samples were frozen and lyophilized. The dry plasma was subsequently used to extract and measure the concentration of the flavonoids and biotransformation products.
as §1
To evaluate the suitability of the assay for the pharmacokinetic studies, 200 mg/kg of the active fraction was orally administered to the animals. Ten animals were used in each group at different times (0, 5, 10, 15, 30, 60, 120, 240, 480, 720, and 1440 min). Pharmacokinetic calculations were performed using the observed data. All data was subsequently processed using the PKSolver add-in program for Microsoft Excel written in Visual Basic for Applications. All values obtained were expressed in mean ± standard deviation.

[3] = set-up: method as in PMID 11151743; conditions: glucoronides and sulphates of quercetin found in plasma; cited from earlier work
[4] = storage stability, high nominal conc.
[5] = storage stability, high nominal conc. (7.00; 44.37; 4.50; 31.25 µg/mL), n = 6
[6] = storage stability, low nominal conc.
[7] = storage stability, low nominal conc. (1.75; 11.02; 1.12; 1.95 µg/mL), n = 6
[8] = storage stability, medium nominal conc.

## C[C@@H]1O[C@@H](OC[C@H]2O[C@@H](Oc3c(-c4ccc(O)c(O)c4)oc4cc(O)cc(O)c4c3=O)[C@H](O)[C@@H](O)[C@@H]2O)[C@H](O)[C@H](O)[C@H]1O [Rutin, rutin]
[1]
  Observed Conc. 0 h: 3.39 ± 0.16 µg/mL
  Observed Conc. 8 h: 3.67 ± 0.30 µg/mL
  Observed Conc. 24 h: 3.38 ± 0.27 µg/mL
  Observed Conc. Autosampler (4 °C; 8 h): 3.44 ± 0.15 µg/mL
  Observed Conc. Long-term (−70 °C; 1 month): 3.51 ± 0.28 µg/mL
[1]; room temperature (25 °C), 0 h, high nominal conc.
  Accuracy Bias 0 h: −1.99%
[1]; room temperature (25 °C), 0 h, high nominal conc. (rutin 7.00; quercetin glucoside, quercitrin, tiliroside 44.37; kaempferol 4.50; m-HPAA, p-HPAA, DOPAC 31.25 µg/mL), n = 6
  Observed Conc. 0 h: 7.27 ± 0.41 µg/mL
[1]; room temperature (25 °C), 0 h, low nominal conc.
  Accuracy Bias 0 h: 5.76%
[1]; room temperature (25 °C), 0 h, low nominal conc. (rutin 1.75; quercetin glucoside, quercitrin, tiliroside 11.02; kaempferol 1.12; m-HPAA, p-HPAA, DOPAC 1.95 µg/mL), n = 6
  Observed Conc. 0 h: 1.74 ± 0.11 µg/mL
[1]; room temperature (25 °C), 0 h, medium nominal conc.
  Accuracy Bias 0 h: 3.17%
[1]; room temperature (25 °C), 8 h, high nominal conc.
  Accuracy Bias 8 h: −2.45%
[1]; room temperature (25 °C), 8 h, high nominal conc. (7.00; 44.37; 4.50; 31.25 µg/mL), n = 6
  Observed Conc. 8 h: 7.17 ± 0.21 µg/mL
[1]; room temperature (25 °C), 8 h, low nominal conc.
  Accuracy Bias 8 h: 5.46%
[1]; room temperature (25 °C), 8 h, low nominal conc. (1.75; 11.02; 1.12; 1.95 µg/mL), n = 6
  Observed Conc. 8 h: 1.65 ± 0.10 µg/mL
[1]; room temperature (25 °C), 8 h, medium nominal conc.
  Accuracy Bias 8 h: −4.97%
[1]; room temperature (25 °C), 24 h, high nominal conc.
  Accuracy Bias 24 h: −3.93%
[1]; room temperature (25 °C), 24 h, high nominal conc. (7.00; 44.37; 4.50; 31.25 µg/mL), n = 6
  Observed Conc. 24 h: 7.13 ± 0.24 µg/mL
[1]; room temperature (25 °C), 24 h, low nominal conc.
  Accuracy Bias 24 h: 0.33%
[1]; room temperature (25 °C), 24 h, low nominal conc. (1.75; 11.02; 1.12; 1.95 µg/mL), n = 6
  Observed Conc. 24 h: 1.64 ± 0.10 µg/mL
[1]; room temperature (25 °C), 24 h, medium nominal conc.
  Accuracy Bias 24 h: 2.93%
[1]; [4]
  Accuracy Bias Autosampler (4 °C; 8 h): −1.17%
  Accuracy Bias Long-term (−70°C; 1 month): −1.56%
[1]; [5]
  Observed Conc. Autosampler (4 °C; 8 h): 7.08 ± 0.34 µg/mL
  Observed Conc. Long-term (−70 °C; 1 month): 7.10 ± 0.38 µg/mL
[1]; [6]
  Accuracy Bias Autosampler (4 °C; 8 h): −6.41%
  Accuracy Bias Long-term (−70°C; 1 month): 2.92%
[1]; [7]
  Observed Conc. Autosampler (4 °C; 8 h): 1.86 ± 0.19 µg/mL
  Observed Conc. Long-term (−70 °C; 1 month): 1.69 ± 0.12 µg/mL
[1]; [8]
  Accuracy Bias Autosampler (4 °C; 8 h): 1.58%
  Accuracy Bias Long-term (−70°C; 1 month): −0.45%
[2]
  flavonoids found in the plasma after oral administration: not found
[3]
  absorption into the vascular space after oral administration: not absorbed
